Measurements reported in patent US20090202499A1, “Human Telomerase Reverse Transcriptase Peptides” (priority 2006, published 2009).
Entries after “also recorded” stand apart in the source; their conditions may differ. Read-outs that look alike come from different tables or passages of the source.

Experiments:
B*3501 = B*3501 (Homo sapiens, UniProt P01889, A329T/A93T/A95T/C349S/D201E/D98Y/E176V/E187L/E204Q/E69T/I218V/K202T/L119I/Q94N/R155S/R180L/S121R/S35A/S48A/T118I/V127L/V306I/V36M/Y140S/Y91F); test: HLA-B7 supertype binding assay
Description: (§1) Supertype analysis. Quantitative assays to measure the binding affinity of peptides to purified HLA B7-supertype molecules (B*0702, B*3501, B*5101, B*5301, B*5401) and B*0801 were based on the inhibition of binding of a radiolabeled standard peptide, and were performed as previously described (22, 35). Briefly, 1-10 nM of radiolabeled peptide was co-incubated at room temperature with 1 microM to 1 nM of purified MHC in the presence of 1-3 μM human beta2-microglobulin (Scripps Laboratories, San Diego, Calif.) and a cocktail of protease inhibitors. After a two-day incubation, binding of the radiolabeled peptide to the corresponding MHC class I molecule was determined by capturing MHC/peptide complexes on Greiner Lumitrac 600 microplates (Greiner Bio-one, Longwood, Fla.) coated with the W6/32 antibody, and measuring bound counts per minute (cpm) using the TopCount microscintillation counter (Packard Instrument Co.). […] Under the conditions utilized, where [label]<[MHC] and IC50≧[MHC], the measured IC50 values are reasonable approximations of the true Kd values.
(§2) HLA molecules are highly polymorphic posing problems to the identification of peptides, which could be used to cover the totality of the human population. However, HLA alleles can be clustered into a relatively small number of groups termed supertypes (21). The HLA-B7 supertype includes ten alleles (22). Here, we decided to test the selected hTRT peptides for their ability to bind five out of ten members of the HLA-B7 supertype (B*3501, B*5101, B*5301, B*5401) and B*0801. The B*0801 allele shares binding features with B*0702, although is not officially part of the HLA-B7 supertype. This analysis had the purpose to further narrow the selection of putative HLA-B7 immunogens based on supertype binding (Table V).

B*5301 = B*5301 (Homo sapiens, UniProt P01889, A329T/A93T/A95T/C349S/D201E/D98Y/E176V/E187L/E204Q/E69T/G107R/I218V/K202T/L105A/L119I/N104I/Q94N/R106L/R155S/R180L/S101N/S121R/S35A/S48A/T118I/V127L/V306I/V36M/Y140S/Y91F); test: HLA-B7 supertype binding assay
Description: as §1, §2

B*5101 = B*5101 (Homo sapiens, UniProt P01889, A329T/A93T/A95T/C349S/D138N/D201E/D98Y/E187L/E204Q/E69T/G107R/I218V/K202T/L105A/L119W/N104I/Q94N/R106L/R155S/R180L/S101N/S121T/S35A/S48A/V306I/V36M/Y195H/Y91F); test: HLA-B7 supertype binding assay
Description: as §1, §2

B*5401 = B*5401 (Homo sapiens, UniProt P01889, A329T/C349S/D138N/D201E/E176V/E187T/E204Q/E69G/I76V/K202T/L119W/R155S/R180L/S121T/S35A/S48A/V127L/V306I/V36M/Y140L); test: HLA-B7 supertype binding assay
Description: as §1, §2

[1] = system: RMA-B7 cells pulsed with the homologous hTRT peptide; test: peptide immunization of HLA-B7 Tg mice, 51Cr-release assay; type: in vivo; conditions: 100 micrograms peptide + HBV helper peptide in IFA, s.c.
Description: FIG. 1. […] HLA-B7 Tg mice were vaccinated with 100 micrograms of individual hTRT peptide together with 120 micrograms of HBV helper peptide in IFA. Ten days after immunization, spleen lymphocytes were restimulated in vitro with peptide and fresh, irradiated syngeneic APC. Restimulations were performed on a weekly basis. A standard 4 hour ^51Cr-release assay was performed on day 5 after in vitro restimulation, using RMA-B7 cells pulsed with the homologous hTRT peptide as targets and an E:T ratio of 25:1. Results are expressed as the mean specific lysis plus or minus standard deviation of responder mice only, whose number is indicated in each panel. Tests were run in duplicate.
In vivo immunization procedures. Peptide immunization. HLA B7 transgenic mice (28) were injected s.c. at the base of the tail with 100 micro-grams of hTRT peptides along with 120 micro-grams of I-A^b MHC Class II helper peptide 128-140 of the hepatitis B virus core protein in incomplete Freunds' adjuvant as described previously (12). Long-term CTL lines were maintained in culture by weekly restimulation with irradiated, peptide-pulsed syngeneic spleen cells in RPMI-1640 medium containing 10% heat inactivated fetal bovine serum, 2 mM glutamine, 5×10^−5 M 2-Mercaptoethanol, 50 micro-grams/ml streptomycin, and 50 micro-grams/ml penicillin (complete medium) and supplemented with 40 IU/ml of recombinant human IL-2.
CTL assays. Both murine and human CTL were detected by the ^51Cr release assay performed as previously described (14). Briefly, HLA-B7^+ antigen presenting cells (RMA-B7 or T2-B7 cells) were labeled for 1 hr with 100 micro-Ci of Na2^51CrO4 (Perkin Elmer). Washed cells (5×10^3 per well) were mixed in 96-well plates in 100 micro-liters/well with each peptide (at 10 micro-grams/ml or lower concentration) and 100 micro-liters of the CTL effector cells (at various E:T ratio) in RPMI medium. The plates were incubated for 4-5 hrs at 37° C. (5% CO2). The supernatants were harvested and counted on a Wallac 1470 Wizard Gamma counter. The percent lysis was calculated as 100 (cpmexp−cpmspont)/(cpmmax−cpmspont).
In order to assign immunogenicity to each of the peptides and correlate this property with the binding characteristics and the scores of the predictive algorithms, we immunized HLA-B7 Tg mice (28). Ten to eleven days after immunization mice were sacrificed, the spleen harvested and splenocytes put in culture with LPS/Dextran activated APC, and tested in a 4 hour ^51Cr-release assay. As shown, only five out of seven peptides yielded a meaningful, specific CTL response even after a third cycle of in vitro restimulation (FIG. 1). All immunogenic peptides induced a response from the first in vitro restimulation and this response increased upon subsequent rounds of antigen restimulation. As noted the lysis of peptide-pulsed RMA-B7 target cells increased at each round of in vitro restimulation. No lysis occurred on RMA-B7 cells not pulsed with peptide. Thus, the in vivo results together with the actual measure of the avidity of HLA-B7 binding avidity distinguished two groups of 9mer hTRT peptides.

B*0801 = B*0801 (Homo sapiens, UniProt P01889, A93T/A95T/D138N/E176V/E187T/K202T/Q94N/R180D/S35A/V36M/Y33D/Y91F); test: biochemical
B*0702 = B*0702 (Homo sapiens, UniProt P01889); test: competition solid-phase radioimmunoassay on purified HLA molecule; type: binding
Description: as §1
Next, we assessed the actual binding avidity for HLA-B7 (HLA-B*0702). Two independent assays were used: binding stabilization assay on T2-B7 cells by flow cytometry (12) and a competitive solid-phase radioimmunoassay on immobilized purified HLA-B7 molecule (35).

In the case of `CSCC[C@H](NC(=O)[C@H](CC(N)=O)NC(=O)[C@H](CCCNC(=N)N)NC(=O)CNC(=O)[C@H](C)N)C(=O)N[C@@H](CCCNC(=N)N)C(=O)N[C@@H](CCCNC(=N)N)C(=O)N[C@@H](CCCCN)C(=O)N[C@@H](CC(C)C)C(=O)O` [p966], the IC50 (B*3501) is reported as greater than 50 µM, the IC50 (B*5301) is reported as greater than 50 µM and the IC50 (B*5101) is reported as greater than 50 µM. The IC50 (B*5401) was 34.1 µM, the “immunogenicity in vivo, CTL response after peptide immunization (in words)” value [1] was “non-immunogenic; also recorded: poor immunogenicity; also recorded: repeated negative results” and the IC50 (B*0801) was greater than 50 µM. The IC50 (B*0702) was greater than 50000 nM and the IC50 (B*0702; read-out: HLA class I binding capacity (IC50 nM) B*0702, Table V, purified MHC, radiolabeled standard peptide) was greater than 50000 nM.
